According to BigSolDB 2.1:

Cc1ccccc1S(N)(=O)=O
solubility (mole fraction)
Details | 283.15 K | 288.15 K | 293.15 K | 298.15 K | 303.15 K | 308.15 K | 313.15 K | 318.15 K
in acetonitrile | 0.0337 | 0.0375 | 0.0423 | 0.0475 | 0.0534 | 0.0597 | 0.0669 | 0.0737
in ethanol | 0.0242 | 0.0266 | 0.0293 | 0.0321 | 0.035 | 0.0384 | 0.042 | 0.0456
in ethyl acetate | 0.0497 | 0.053 | 0.0566 | 0.0604 | 0.0644 | 0.0687 | 0.0729 | 0.0775
in isopropanol | 0.0198 | 0.022 | 0.0246 | 0.0276 | 0.0305 | 0.0337 | 0.0374 | 0.0414
in methanol | 0.0277 | 0.0305 | 0.0341 | 0.0378 | 0.0425 | 0.0473 | 0.0526 | 0.0579
in n-butanol | 0.0209 | 0.0232 | 0.0257 | 0.0286 | 0.0316 | 0.0348 | 0.0382 | 0.0421
in n-propanol | 0.0226 | 0.0249 | 0.0274 | 0.0301 | 0.0331 | 0.0361 | 0.0394 | 0.0427

Cc1ccc(S(N)(=O)=O)cc1
solubility (mole fraction)
Details | 283.15 K | 288.15 K | 293.15 K | 298.15 K | 303.15 K | 308.15 K | 313.15 K | 318.15 K
in acetonitrile | 0.078 | 0.0848 | 0.0955 | 0.106 | 0.118 | 0.13 | 0.143 | 0.159
in ethanol | 0.0344 | 0.0392 | 0.0448 | 0.0524 | 0.0608 | 0.0701 | 0.0801 | 0.0914
in ethyl acetate | 0.0728 | 0.0786 | 0.0859 | 0.0946 | 0.104 | 0.114 | 0.123 | 0.133
in isopropanol | 0.0203 | 0.0232 | 0.0267 | 0.0306 | 0.0347 | 0.0392 | 0.0445 | 0.0509
in methanol | 0.0441 | 0.0505 | 0.0569 | 0.0648 | 0.073 | 0.0827 | 0.0932 | 0.104
in n-butanol | 0.0242 | 0.028 | 0.0316 | 0.0358 | 0.0403 | 0.0452 | 0.0501 | 0.0565
in n-propanol | 0.0272 | 0.0313 | 0.0358 | 0.0415 | 0.047 | 0.0542 | 0.0611 | 0.0689
